Test results from PubChem BioAssay (NCI).
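Interpolation was linear, between the two tested concentrations surrounding the appropriate level; five concentrations were tested over 48 hours in 96-well plates. Definition used: TGI = concentration required for complete inhibition of growth.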

Key:
Assay in all cases: NCI-60 cell line screen, 48 h
[1] = system: IGROV1 ovarian
[2] = system: OVCAR-5 ovarian
[3] = system: NCI-H226 lung
[4] = system: OVCAR-8 ovarian
[5] = system: EKVX NSCLC
[6] = system: CAKI-1 renal
[7] = system: DU-145 prostate
[8] = system: ACHN renal
[9] = system: HCT-15 colon
[10] = system: MCF7 breast
[11] = system: SK-MEL-28 melanoma
[12] = system: NCI/ADR-RES ovarian
[13] = system: COLO 205 colon
[14] = system: UACC-62 melanoma
[15] = system: MDA-MB-435
[16] = system: HS 578T breast
[17] = system: SF-539 CNS
[18] = system: KM12 colon
[19] = system: CCRF-CEM leukemia
[20] = system: LOX IMVI melanoma

SMILES | TGI [1] [µM] | TGI [2] [µM] | TGI [3] [µM] | TGI [4] [µM] | TGI [5] [µM] | TGI [6] [µM] | TGI [7] [µM] | TGI [8] [µM] | TGI [9] [µM] | TGI [10] [µM] | TGI [11] [µM] | TGI [12] [µM] | TGI [13] [µM] | TGI [14] [µM] | TGI [15] [µM] | TGI [16] [µM] | TGI [17] [µM] | TGI [18] [µM] | TGI [19] [µM] | TGI [20] [µM]
CN(N=O)c1nc2c(C(N)=O)ncn2s1 | > 100 | > 100 | > 100 | > 100 | > 100 | > 100 | > 100 | > 100 | > 100 | > 100 | > 100 | > 100 | > 100 | > 100 | > 100 | > 100 | > 100 | > 100 | > 100 | > 100
O=C1NC2(CCNCC2)Oc2ccccc21 | > 100 | > 100 | > 100 | > 100 | > 100 | > 100 | > 100 | > 100 | > 100 | > 100 | > 100 | > 100 | > 100 | > 100 | > 100 | > 100 | > 100 | > 100 | > 100 | > 100
Cc1c(/C=N/NC(=S)N2CCCCC2)c(=O)n(-c2ccccc2)n1C | > 100 | > 100 | > 100 | > 100 | > 100 | > 100 | > 100 | 98.5 | > 100 | > 100 | > 100 | > 100 | > 100 | > 100 | > 100 | > 100 | > 100 | > 100 | > 100 | > 100
CC(C)[C@H]1NC(=O)[C@H]2N=C(S[C@H]2C)[C@@H]2CCCN2C(=O)[C@H](Cc2ccccc2)NC(=O)[C@@H]2CSC(=N2)[C@@H](Cc2ccccc2)NC(=O)[C@@H]2CSC1=N2 | > 50 | > 50 | > 50 | > 50 | > 50 | > 50 | > 50 | > 50 | > 50 | > 50 | > 50 | > 50 | > 50 | > 50 | > 50 | 47 | > 50 | > 50 | 46.4 | > 50
COc1cccc(C23CCN(C)C(CC(O)C2)C3)c1OC (stereo not drawn) | > 100 | > 100 | > 100 | > 100 | > 100 | > 100 | > 100 | > 100 | > 100 | > 100 | > 100 | > 100 | > 100 | > 100 | > 100 | > 100 | > 100 | > 100 | > 100 | > 100
COc1cc(OC)c2c(=O)c3cccc(C)c3n(C)c2c1 | > 100 | > 100 | > 100 | > 100 | > 100 | > 100 | > 100 | > 100 | > 100 | > 100 | > 100 | > 100 | > 100 | > 100 | > 100 | > 100 | > 100 | > 100 | > 100 | > 100
CC(C)[Si]1(C(C)C)OCC2OC(n3ccc(=O)[nH]c3=O)C([Se]c3ccccc3)C2O[Si](C(C)C)(C(C)C)O1 (stereo not drawn) | 9.49 | 22.8 | 3.88 | 10.7 | 17.5 | 24.3 | 24.7 | 6.59 | 16.3 | 8.27 | 12.5 | 26.7 | 16.6 | 14.8 | 17.3 | 5.46 | 20.7 | 6.62 | > 24.4 | 2.45
Cc1ccc(-c2cc(-c3ccc(Cl)cc3)nc(/N=C3\C(=O)N(CN(C)C)c4ccccc43)n2)cc1 | > 100 | > 100 | > 100 | > 100 | > 100 | > 100 | 97.8 | > 100 | > 100 | > 100 | > 100 | > 100 | > 100 | > 100 | 32.1 | > 100 | > 100 | > 100 | > 100 | 58.5
O=[N+]([O-])c1cccc2nccc(NCCN3CCOCC3)c12 | 45.1 | 38.4 | 17 | > 54.2 | > 53.8 | 20.2 | > 100 | > 59.4 | > 46.9 | 25.5 | 46.1 | > 100 | 49 |  | 81.8 | 57.6 | 57.2 | 40 | > 64.8 | 46.6
CN=c1sc2nc(C#N)c(C#N)nc2n1C | 53.4 | 51.6 | 38.8 |  | 73.8 | 60.3 | > 85.4 | 60.2 | 41.2 | 38.1 | > 85 | 59.1 | 32.1 | 40.6 | 52.1 | > 100 | > 70.9 | > 67.8 | > 100 | 46.5
